Test results taken from PubChem BioAssay (NCI).
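48-hour exposure; five concentrations; linearly interpolated endpoints. GI50 = concentration required for 50% inhibition of growth. TGI: concentration producing complete growth inhibition.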

How the values were obtained:
Experiment in all cases: DTP human tumour cell line panel, 48 h
DMS 273 small cell lung = tested on: DMS 273 small cell lung
RXF 393 renal = tested on: RXF 393 renal
UO-31 renal = tested on: UO-31 renal
SNB-75 CNS = tested on: SNB-75 CNS
NCI-H460 lung = tested on: NCI-H460 lung
TK-10 renal = tested on: TK-10 renal
A549 NSCLC = tested on: A549 NSCLC
SF-268 CNS = tested on: SF-268 CNS
A498 renal = tested on: A498 renal
ACHN renal = tested on: ACHN renal
U251 CNS = tested on: U251 CNS
NCI-H23 lung = tested on: NCI-H23 lung
HCT-116 colon = tested on: HCT-116 colon
SF-539 CNS = tested on: SF-539 CNS
SK-MEL-28 melanoma = tested on: SK-MEL-28 melanoma
K-562 leukemia = tested on: K-562 leukemia
IGROV1 ovarian = tested on: IGROV1 ovarian
OVCAR-4 ovarian = tested on: OVCAR-4 ovarian
LOX IMVI melanoma = tested on: LOX IMVI melanoma
SK-OV-3 ovarian = tested on: SK-OV-3 ovarian
M14 melanoma = tested on: M14 melanoma
SF-295 CNS = tested on: SF-295 CNS
EKVX NSCLC = tested on: EKVX NSCLC
HCT-15 colon = tested on: HCT-15 colon
HOP-62 NSCLC = tested on: HOP-62 NSCLC
HT29 colon = tested on: HT29 colon
COLO 205 colon = tested on: COLO 205 colon
CCRF-CEM leukemia = tested on: CCRF-CEM leukemia
CAKI-1 renal = tested on: CAKI-1 renal
OVCAR-8 ovarian = tested on: OVCAR-8 ovarian
SNB-19 CNS = tested on: SNB-19 CNS
786-0 renal = tested on: 786-0 renal
UACC-62 melanoma = tested on: UACC-62 melanoma
NCI-H226 lung = tested on: NCI-H226 lung
NCI-H522 lung = tested on: NCI-H522 lung
SW-620 colon = tested on: SW-620 colon
LXFL 529 NSCLC = tested on: LXFL 529 NSCLC
UACC-257 melanoma = tested on: UACC-257 melanoma
MALME-3M melanoma = tested on: MALME-3M melanoma
HCC-2998 colon = tested on: HCC-2998 colon
OVCAR-5 ovarian = tested on: OVCAR-5 ovarian
M19-MEL melanoma = tested on: M19-MEL melanoma
SK-MEL-2 melanoma = tested on: SK-MEL-2 melanoma
HOP-18 NSCLC = tested on: HOP-18 NSCLC
RPMI-8226 leukemia = tested on: RPMI-8226 leukemia
SN12C renal = tested on: SN12C renal
KM12 colon = tested on: KM12 colon
DLD-1 colon = tested on: DLD-1 colon
HL-60(TB) leukemia = tested on: HL-60(TB) leukemia
MOLT-4 leukemia = tested on: MOLT-4 leukemia
OVCAR-3 ovarian = tested on: OVCAR-3 ovarian
KM20L2 colon = tested on: KM20L2 colon
SK-MEL-5 melanoma = tested on: SK-MEL-5 melanoma

Structure (SMILES): CC(=O)[CH-]C(=O)c1ccccc1.CC(=O)[CH-]C(=O)c1ccccc1.CC(C)CCCC(C)[C@H]1CCC2[C@@H]3CCC4C[C@@H]([O-])CC[C@]4(C)C3CC[C@@]21C.CC(C)CCCC(C)[C@H]1CCC2[C@@H]3CCC4C[C@@H]([O-])CC[C@]4(C)C3CC[C@@]21C.Cl.[Ti+4] (stereo partly specified)
- GI50 (DMS 273 small cell lung): > 25 µM
- TGI (DMS 273 small cell lung): > 25 µM
- GI50 (RXF 393 renal): > 25 µM
- TGI (RXF 393 renal): > 25 µM
- GI50 (UO-31 renal): > 25 µM
- TGI (UO-31 renal): > 25 µM
- GI50 (SNB-75 CNS): > 25 µM
- TGI (SNB-75 CNS): > 25 µM
- GI50 (NCI-H460 lung): > 25 µM
- TGI (NCI-H460 lung): > 25 µM
- GI50 (TK-10 renal): > 25 µM
- TGI (TK-10 renal): > 25 µM
- GI50 (A549 NSCLC): > 25 µM
- TGI (A549 NSCLC): > 25 µM
- GI50 (SF-268 CNS): > 25 µM
- TGI (SF-268 CNS): > 25 µM
- GI50 (A498 renal): > 25 µM
- TGI (A498 renal): > 25 µM
- GI50 (ACHN renal): > 25 µM
- TGI (ACHN renal): > 25 µM
- GI50 (U251 CNS): > 25 µM
- TGI (U251 CNS): > 25 µM
- GI50 (NCI-H23 lung): > 25 µM
- TGI (NCI-H23 lung): > 25 µM
- GI50 (HCT-116 colon): > 25 µM
- TGI (HCT-116 colon): > 25 µM
- GI50 (SF-539 CNS): > 25 µM
- TGI (SF-539 CNS): > 25 µM
- GI50 (SK-MEL-28 melanoma): > 25 µM
- TGI (SK-MEL-28 melanoma): > 25 µM
- GI50 (K-562 leukemia): > 25 µM
- TGI (K-562 leukemia): > 25 µM
- GI50 (IGROV1 ovarian): > 25 µM
- TGI (IGROV1 ovarian): > 25 µM
- GI50 (OVCAR-4 ovarian): > 25 µM
- TGI (OVCAR-4 ovarian): > 25 µM
- GI50 (LOX IMVI melanoma): > 25 µM
- TGI (LOX IMVI melanoma): > 25 µM
- GI50 (SK-OV-3 ovarian): > 25 µM
- TGI (SK-OV-3 ovarian): > 25 µM
- GI50 (M14 melanoma): > 25 µM
- TGI (M14 melanoma): > 25 µM
- GI50 (SF-295 CNS): > 25 µM
- TGI (SF-295 CNS): > 25 µM
- GI50 (EKVX NSCLC): > 25 µM
- TGI (EKVX NSCLC): > 25 µM
- GI50 (HCT-15 colon): > 25 µM
- TGI (HCT-15 colon): > 25 µM
- GI50 (HOP-62 NSCLC): > 25 µM
- TGI (HOP-62 NSCLC): > 25 µM
- GI50 (HT29 colon): > 25 µM
- TGI (HT29 colon): > 25 µM
- GI50 (COLO 205 colon): > 25 µM
- TGI (COLO 205 colon): > 25 µM
- GI50 (CCRF-CEM leukemia): > 25 µM
- TGI (CCRF-CEM leukemia): > 25 µM
- GI50 (CAKI-1 renal): > 25 µM
- TGI (CAKI-1 renal): > 25 µM
- GI50 (OVCAR-8 ovarian): > 25 µM
- TGI (OVCAR-8 ovarian): > 25 µM
- GI50 (SNB-19 CNS): > 25 µM
- TGI (SNB-19 CNS): > 25 µM
- GI50 (786-0 renal): > 25 µM
- TGI (786-0 renal): > 25 µM
- GI50 (UACC-62 melanoma): > 25 µM
- TGI (UACC-62 melanoma): > 25 µM
- GI50 (NCI-H226 lung): > 25 µM
- TGI (NCI-H226 lung): > 25 µM
- GI50 (NCI-H522 lung): > 25 µM
- TGI (NCI-H522 lung): > 25 µM
- GI50 (SW-620 colon): > 25 µM
- TGI (SW-620 colon): > 25 µM
- GI50 (LXFL 529 NSCLC): > 25 µM
- TGI (LXFL 529 NSCLC): > 25 µM
- GI50 (UACC-257 melanoma): > 25 µM
- TGI (UACC-257 melanoma): > 25 µM
- GI50 (MALME-3M melanoma): 8.93 µM
- TGI (MALME-3M melanoma): > 25 µM
- GI50 (HCC-2998 colon): > 25 µM
- TGI (HCC-2998 colon): > 25 µM
- GI50 (OVCAR-5 ovarian): > 25 µM
- TGI (OVCAR-5 ovarian): > 25 µM
- GI50 (M19-MEL melanoma): > 25 µM
- TGI (M19-MEL melanoma): > 25 µM
- GI50 (SK-MEL-2 melanoma): > 25 µM
- TGI (SK-MEL-2 melanoma): > 25 µM
- GI50 (HOP-18 NSCLC): > 25 µM
- TGI (HOP-18 NSCLC): > 25 µM
- GI50 (RPMI-8226 leukemia): > 25 µM
- TGI (RPMI-8226 leukemia): > 25 µM
- GI50 (SN12C renal): > 25 µM
- TGI (SN12C renal): > 25 µM
- GI50 (KM12 colon): > 25 µM
- TGI (KM12 colon): > 25 µM
- GI50 (DLD-1 colon): > 25 µM
- TGI (DLD-1 colon): > 25 µM
- GI50 (HL-60(TB) leukemia): 8.29 µM
- TGI (HL-60(TB) leukemia): 24.9 µM
- GI50 (MOLT-4 leukemia): > 25 µM
- TGI (MOLT-4 leukemia): > 25 µM
- GI50 (OVCAR-3 ovarian): > 25 µM
- TGI (OVCAR-3 ovarian): > 25 µM
- GI50 (KM20L2 colon): > 25 µM
- TGI (KM20L2 colon): > 25 µM
- GI50 (SK-MEL-5 melanoma): > 25 µM
- TGI (SK-MEL-5 melanoma): > 25 µM
